The subject of the data set is S-180 cells. An excerpt:
Healthy adult male mice of BALB/c strain (hereinafter, “animals”) weighing between 18 to 22 g were selected randomly. The animals were divided in to six groups. Each animal was identified by color marking. Each cage was identified by a label according to the group. The label contained the name of experiment, number of mice in that cage, dose (mg/kg) and date of initiation and completion of experiment. The groups received treatments for a period of 15 days. On Day 16, samples of blood were withdrawn, under anesthesia, from orbital sinus of the animals. The samples were collected in tubes containing Heparin as an anticoagulant.
Group I was treated as vehicle control and received vehicle (Corn oil) orally, in equal volume as in treatment groups. Group II received only tumor cells (1×10^6 cells) intra-peritoneally. Group III received tumor cells (1×10^6 cells) and cyclophosphamide (150 mg/kg body weight) intra-peritoneally. Group IV and Group V received Tumor cells and BV-3115 at 100 mg/kg body weight and 250 mg/kg body weight respectively.
A group of male mice approximately 7-8 weeks old and weighing between 18-22 gm were used for this study. Animal room temperature & relative humidity were maintained at 22-30 C. and 30-70% respectively. All mice were given free access to purified water (Purified with Aquaguard) & standard pelleted laboratory animal feed. After acclimation period of 7 days, each animal was weighed and then the animals were randomly selected according to body weights and allocated to the different treatment groups, so that mean body weights of groups were not statistically different before starting the experiment. Tumor implantation with S-180 cells 1×10^6 cells I.P. to all groups except group I (sham control no tumor, no drug).

[1] abbreviates: all treatment groups, Day 16 blood.

On to `O=P1(N(CCCl)CCCl)NCCCO1` (stereo not drawn) [cyclophosphamide], for which the mortality result (BALB/c mice, 15 days, cyclophosphamide 150 mg/kg i.p., BV-3115 100 and 250 mg/kg, combination with BV-3115 100 mg/kg) is recorded as “No mortality”. Besides, the “body weight compared to Group I” value (Group III, cyclophosphamide 150 mg/kg i.p., P<0.05) was “normal weight gain till Day 10, thereafter sudden decrease in weights”. For the same compound, the “body weight on day 15” value (S-180 cells 1×106 I.P., vs sham control / tumor group) is on record as “reduced the body weight alarmingly lower than sham control”. For the same compound, where the note is “all treatment groups”, the “platelets compared with Group I (vehicle control)” value was “comparable to Group I”. For the same compound, the “body weight compared to Group II (tumor cells only)” value (all treatment groups (III, IV, V and VI)) is “significant decrease in body weight”. Besides, under setting [1], the RBC count entry is given as “increased in varying degrees” and the hemoglobin content result is “increased in varying degrees”. Where the note is “group III (cyclophosphamide) and VI (combination), P<0.05”, the “white blood cells compared with Group II” value is “statistically significant decrease in white blood cells”. For the same compound, for the setting “other groups: cyclophosphamide 150 mg/kg, BV-3115 100 mg/kg, combination”, the clinical signs entry was “No clinically abnormal signs”.
